Test results taken from PMC12192976, “Unique Structural Features Relate to Evolutionary Adaptation of Cytochrome P450 in the Abyssal Zone” (International Journal of Molecular Sciences, 2025).
One block for each compound: values may come before it.

Tests used:
[1] = target: human CYP51; set-up: method as in PMID 27313059; conditions: read-out: apparent dissociation constant (Kd), azole ligand; cited from earlier work
[2] = target: T1, C. armatus CYP51 (Coryphaenoides armatus, UniProt Z9AQN8BZD8); assay: Inhibition of reconstituted lanosterol 14α-demethylation, 1 h reaction; conditions: enzyme/inhibitor/substrate 1:50:50, 60 min
T1 sequence (Z9AQN8BZD8 6-449 limits assumed): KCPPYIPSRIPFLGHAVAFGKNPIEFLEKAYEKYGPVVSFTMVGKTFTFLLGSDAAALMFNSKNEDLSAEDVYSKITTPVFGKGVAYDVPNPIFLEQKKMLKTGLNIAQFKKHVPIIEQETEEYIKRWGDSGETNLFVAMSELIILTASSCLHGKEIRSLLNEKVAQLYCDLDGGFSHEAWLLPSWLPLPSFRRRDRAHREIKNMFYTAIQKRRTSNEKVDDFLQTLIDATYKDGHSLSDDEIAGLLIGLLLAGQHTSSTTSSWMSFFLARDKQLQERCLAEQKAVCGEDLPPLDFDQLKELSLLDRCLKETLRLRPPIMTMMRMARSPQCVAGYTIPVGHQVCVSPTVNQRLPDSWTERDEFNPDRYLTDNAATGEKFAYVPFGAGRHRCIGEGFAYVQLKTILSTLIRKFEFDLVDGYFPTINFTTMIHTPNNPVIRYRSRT
Procedure: (§1) The samples were preincubated for 3 min at 37 °C in a shaking water bath, and the reaction was initiated by the addition of 100 μM NADPH and stopped by the extraction of sterols with ethyl acetate. The extracted sterols were dried, dissolved in 100 µL of methanol, and the products were analyzed by reversed-phase HPLC equipped with a β-RAM detector (INUS Systems) using a Nova-Pak 3.9 mm × 150 mm (4 μm) octadecylsilane (C18) HPLC column. The products were separated with an isocratic mobile phase composed of acetonitrile and methanol (4:1 (v/v)) at a flow rate of 0.75 mL/min [9]. Michaelis–Menten parameters were calculated using GraphPad Prism. The kcat and Km values for each reaction were determined by fitting the data to a Michaelis–Menten hyperbola, with the reaction rates (nmol product formed/nmol P450/min) being plotted versus total substrate concentration.

[3] = target: T1, C. armatus CYP51; assay: Spectral titration with azole-based ligands (type II response)
Procedure: Equal amounts of the HPCD solution were added to the reference cuvette to correct for the solvent-induced spectral perturbations, and the difference spectra were taken in the wavelength range of 350–500 nm. […] Titrations with azole-based compounds were carried out at 0.5 µM P450 concentration in 5 cm optical path length cuvettes. Aliquots of 0.1 mM compounds dissolved in dimethyl sulfoxide (DMSO) were added to the sample cuvette, with each titration step being 0.1 µM. At each step, the corresponding volume of DMSO was added to the reference cuvette. The apparent spectral dissociation constants (Kd) were calculated in GraphPad Prism software, as described, for human CYP51 [22].

[4] = tested on: human CYP51; set-up: method as in PMID 27313059; conditions: cited from earlier work
[5] = target: T1, C. armatus CYP51; assay: Spectral titration of C. armatus CYP51 with sterol substrates (type I response); conditions: P450 2 µM; for Kd: read-out: Kd (apparent spectral dissociation constant, sterol substrate), titration step 0.25 µM; for Spin State Transition in the Heme Iron: sterol 0.25−3 µM, 22 °C
Procedure: Equal amounts of the HPCD solution were added to the reference cuvette to correct for the solvent-induced spectral perturbations, and the difference spectra were taken in the wavelength range of 350–500 nm. […] The apparent spectral dissociation constants (Kd) were calculated in GraphPad Prism software, as described, for human CYP51 [22].

[6] = target: T1, C. armatus CYP51; assay: Reconstituted sterol 14α-demethylation, steady-state (Michaelis–Menten) kinetics; conditions: 0.25 µM P450, 1 µM CPR, 1 min reaction, 37 °C; for kcat: sterol 3.12−37.5 µM
Procedure: as §1

[7] = target: T1, C. armatus CYP51; assay: Stabilization of C. armatus CYP51 by TMAO (CO-binding spectra after overnight storage)
Procedure: Absorption spectra (270–700 nm) were recorded at 22 °C using a dual-beam Shimadzu UV-2600i spectrophotometer and UVProbe2.71 software. The P450 concentration was determined from the Soret band absorbance in the absolute spectrum, with the extinction coefficient 117 mM^−1 cm^−1 for the low-spin ferric form or 91 mM^−1 cm^−1 for the reduced (ferrous) carbon monoxide (CO) complex in the difference spectra. The spin state of the P450 samples was estimated from the absolute spectra using the ratio (ΔA393–470/ΔA417–470), with values of 0.35 and 2.0 corresponding to 100% low- and 100% high-spin iron, respectively.
After data collection the crystals were dissolved in phosphate buffered saline (PBS, Gibco, Billings, MT, USA). UV-visible absolute absorption spectra (270–700 nm) were recorded at room temperature using a NanoVue,4282 single beam spectrophotometer (CE Healthcare, Cardiff, UK) (Figure S4A). CO-binding difference absorption spectra (400–500 nm) were recorded using a dual-beam Shimadzu UV-2600i spectrophotometer as follows. The CO gas was bubbled through the protein solution, which was then divided into two cuvettes serving as a blank and standard, respectively. The baseline was taken, and a few crystals of […] were added to the sample cuvette (Figure S4B). […]

[8] = target: T1, C. armatus CYP51
Procedure: as §1

[9] = read-out: apparent dissociation constant (Kd), azole ligand, P450 0.5 µM, titration step 0.1 µM

Compound: C[C@@H](c1ncncc1F)[C@](O)(Cn1cncn1)c1ccc(F)cc1F [voriconazole]
Kd [1]: 2530 nM | inhibitory effect on the C. armatus CYP51 activity (in words) [2]: did not have any inhibitory effect | Kd [3, 9]: 610 nM

Compound: CC(=O)N1CCN(c2ccc(OCC3COC(Cn4ccnc4)(c4ccc(Cl)cc4Cl)O3)cc2)CC1 (stereo not shown) [ketoconazole]
Kd [1]: 70 nM | lanosterol converted in presence of inhibitor ([4]; human CYP51, 50-fold molar excess of inhibitor, 1 h reaction): 100% | Kd [3, 9]: 10 nM

inhibitory effect on the C. armatus CYP51 activity (in words) [2]: did not have any inhibitory effect
Compound: CC[C@@H]([C@H](C)O)n1ncn(-c2ccc(N3CCN(c4ccc(OC[C@@H]5CO[C@@](Cn6cncn6)(c6ccc(F)cc6F)C5)cc4)CC3)cc2)c1=O [posaconazole]

Compound: C=C(CC[C@@H](C)C1CC[C@@]2(C)C3=C(CC[C@]12C)[C@@]1(C)CC[C@H](O)C(C)(C)C1CC3)C(C)C (stereo partly shown)
Kd [5]: 1020 ± 40 nM | Spin State Transition in the Heme Iron [5]: 27% | Km [6]: 13 ± 0.9 µM | kcat [6]: 1.03 ± 0.0383 s⁻¹

Compound: C=C(CC[C@@H](C)[C@H]1CC[C@@]2(C)C3=C(CC[C@]12C)[C@@]1(C)CC[C@H](O)[C@@H](C)[C@@H]1CC3)C(C)C [Obtusifoliol, obtusifoliol]
Kd [5]: 560 ± 30 nM | Spin State Transition in the Heme Iron [5]: 13% | Km [6]: 7.9 ± 0.6 µM | kcat [6]: 0.865 ± 0.03 s⁻¹

Compound: C[N+](C)(C)[O-] [TMAO, Trimethylamine oxide]
spectral response in the C. armatus CYP51 heme iron (in words) [7]: does not cause any spectral response | P450 recovery after overnight incubation (CO-binding spectra) ([7]; 10 mM TMAO, overnight storage at 4 °C in PBS): 90%

inhibitory effect on the C. armatus CYP51 activity (in words) [2]: did not have any inhibitory effect
Compound: O[C@@](Cn1cnnn1)(c1ccc(F)cc1F)C(F)(F)c1ccc(-c2ccc(OCC(F)(F)F)cc2)cn1 [oteseconazole]

inhibitory effect on the C. armatus CYP51 activity (in words) [2]: did not have any inhibitory effect
Compound: C[C@@H](c1nc(-c2ccc(C#N)cc2)cs1)[C@](O)(Cn1cncn1)c1cc(F)ccc1F [isavuconazole]

inhibitory effect on the C. armatus CYP51 activity (in words) [2]: did not have any inhibitory effect | Kd [3, 9]: 620 nM
Compound: CCC(C)n1ncn(-c2ccc(N3CCN(c4ccc(OCC5COC(Cn6cncn6)(c6ccc(Cl)cc6Cl)O5)cc4)CC3)cc2)c1=O (stereo not shown) [itraconazole]
Kd [1]: 1290 nM

inhibitory effect on the C. armatus CYP51 activity (in words) [2]: did not have any inhibitory effect
Compound: N#Cc1ccc(COc2ccc(C#Cc3ccc(C(F)(F)[C@](O)(Cn4cnnn4)c4ccc(F)cc4F)nc3)cc2)cc1 [VT-1598]

inhibition of CYP51 activity [8]: 93% | Kd [3]: 20 nM
Compound: O=C(N[C@@H](Cn1ccnc1)c1ccc(-c2ccc(F)cc2)cc1F)c1ccc(-c2nnc(-c3ccccc3)o2)cc1 [VFV, (R)-N-(1-(3,4′-difluorobiphenyl-4-yl)-2-(1H-imidazol-1-yl)ethyl)-4-(5-phenyl-1,3,4-oxadiazol-2-yl)benzamide]
Kd [1]: 90 nM | inhibition of CYP51 activity ([4]; human CYP51, enzyme/inhibitor/substrate 1:50:50, 60 min): 64%

Kd [5]: 770 ± 40 nM | Spin State Transition in the Heme Iron [5]: 22% | Km [6]: 8.1 ± 1.1 µM | kcat [6]: 0.797 ± 0.0317 s⁻¹
Compound: CC(C)=CCC[C@@H](C)[C@H]1CC[C@@]2(C)C3=C(CC[C@]12C)[C@@]1(C)CC[C@H](O)C(C)(C)[C@@H]1CC3 [Lanosterol]
